Experimental data taken from BindingDB's records for doi:10.7270/Q2M61NDW (n/a, 1996).

Molecular target: T1, Papain (Carica papaya, UniProt P00784)
T1 sequence (P00784 whole entry): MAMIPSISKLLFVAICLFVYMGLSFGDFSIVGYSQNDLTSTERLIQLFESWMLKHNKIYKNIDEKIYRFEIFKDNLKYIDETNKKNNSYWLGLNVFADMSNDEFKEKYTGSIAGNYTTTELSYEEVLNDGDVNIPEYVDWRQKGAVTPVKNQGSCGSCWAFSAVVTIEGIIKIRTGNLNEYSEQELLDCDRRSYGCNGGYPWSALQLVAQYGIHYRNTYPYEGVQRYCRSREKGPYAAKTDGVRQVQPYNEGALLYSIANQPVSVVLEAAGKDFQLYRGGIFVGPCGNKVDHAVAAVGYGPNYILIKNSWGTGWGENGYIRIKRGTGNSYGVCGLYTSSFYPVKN
Experiment: Pseudo-first order rate constant for inhibition of thiol-dependent papain enzyme

Compound | koff
CN(N=O)c1ccccc1O | 0.000183 s⁻¹
CN(N=O)c1ccccc1 | 0.00095 s⁻¹
CN(N=O)c1cccc(O)c1 | 0.0006 s⁻¹
CN(N=O)c1ccccc1[N+](=O)[O-] | 0.000433 s⁻¹
CN(N=O)c1ccc(Cl)cc1 | 0.000283 s⁻¹
